Measurements reported in patent US6627623B2, “Inducing cell apoptosis and treating cancer using 1-O-acetylbritannilactone or 1,6-O,O-diacetylbritannilactone” (priority 2001, dated 2003).
Several values for one entry are separate records, joined by “and”; a condition that tells them apart may be missing. Identical values can stand only once.

What was measured:
DU-145 cells = test: MTT cell viability assay, DU-145; format: cell-based
Protocol: (§1) Cell viability was then assessed in a microculture tetrazolium/formazan assay (MTT; Scudiero, D. A. et al. 1988. Cancer Res. 48:4827-4833) using a variety of cell lines. Absorbance was measured at 550 nm and cell viability was expressed as the percentage of drug treated cells relative to that of controls. The IC50 was then defined as the concentration of drug that produced a 50% decrease in cell viability relative to controls. OODABL was first tested in a variety of cell lines. […] In NIH 3T3 (normal mouse fibroblasts) cells treated with various concentrations of OODABL (1, 10, 20 and 50 μM OODABL), cell viability was decreased in a dose-dependent manner with an IC50 of 50 μM.
(§2) OABL was then tested in some of these same cell lines. In MCF-7 cells, OABL was tested at doses of 0.3 nm, 3 nm, 30 nm, 300 nm, 3 μM, and 30 μM.

Bcl-2 [1] = test: Bcl-2 phosphorylation by Western blot in MCF-7 cells; format: cell-based; settings: MCF-7 breast cancer cells
Protocol: (§3) Experiments were performed to determine the activity of two of the sesquiterpene compounds isolated from Inula britannica, OABL and OODABL, as cancer preventative agents. Using a Western blot technique, the ability of these compounds to phosphorylate Bcl-2 in cancer cells was examined. […] OODABL induced Bcl-2 phosphorylation at lower effective doses, 2.5 and 5 μM.

Bcl-2 [2] = test: Bcl-2 phosphorylation in OVCAR ovarian cancer cells; format: cell-based
Protocol: as §3
(§4) In two ovarian cancer cell lines, OVCAR and PA-1, similar results were seen. In OVCAR cells, OODABL induced Bcl-2 phosphorylation at a dose of 5 μM, while OABL induced Bcl-2 phosphorylation at a dose of 10 μM. In PA-1 cells, OODABL induced Bcl-2 phosphorylation at a dose of 5 μM, while OABL induced Bcl-2 phosphorylation at a dose of 10 μM.

[3] = system: breast cancer cell line T47D; test: Cell cycle analysis by flow cytometry; format: cell-based; settings: T47D cells, 20 μM, compared to control cells
Protocol: The effect of OODABL on cell cycle was analyzed by flow cytometery using breast cancer cell lin T47D.

Bcl-2 [4] = test: Bcl-2 phosphorylation in PA-1 ovarian cancer cells; format: cell-based; settings: PA-1 cells
Protocol: as §3, §4

Bcl-2 [5] = test: Bcl-2 phosphorylation in a prostate cancer cell line; format: cell-based
Protocol: as §3
In a prostate cancer cell line, these compounds were also able to induce Bcl-2 phosphorylation. OODABL induced Bcl-2 phosphorylation at a dose of 5 μM while OABL induced Bcl-2 phosphorylation at a dose of 10 μM.

PC-3 prostate cells = test: Clonogenic assay, PC-3; format: cell-based; settings: PC-3 cells, 15 days; read-out: IC50 clonogenic assay (colonies counted)
Protocol: (§5) Cell cytotoxicity was also assessed by a clonogenic assay. MCF-7 breast cells were treated with various concentrations of OODABL (625 nm, 1.25, 2.5, 5 and 10 μM) for 15 days and cells were then stained with methylene blue and colonies counted. […] PC-3 prostate cells were treated with various concentrations of OODABL (20 and 200 nm, and 2 and 20 μM) for 15 days and cells were then stained with methylene blue and colonies counted. The IC50 was in the range of 200 nm OODABL. RKO cells were treated with various concentrations of OODABL (20 and 200 nm, and 2 and 20 μM) for 15 days and cells were then stained with methylene blue and colonies counted. The IC50 was in the range of 20 μM OODABL. Baby rat kidney cells were transformed with E1A and transfected with the Bcl-2 gene to form BRK-4B-Bcl-2 cells. These cells were treated with various concentrations of OODABL (20 and 200 nm, and 2, 10 and 20 μM) for 15 days and cells were then stained with methylene blue and colonies counted. The IC50 was in the range of 200 nM OODABL. Baby rat kidney cells were transformed with E1A and transfected with Bcl-2 gene in which phosphorylation sites were mutated to form phosphomutant BRK-4B-Bcl-2 cells. These cells were treated with various concentrations of OODABL (20 and 200 nm, and 2 and 20 μM) for 15 days and cells were then stained with methylene blue and colonies counted. […]

PARP = PARP cleavage (apoptosis indicator) by Western blot in PA-1 cells; format: cell-based; settings: 24 hours
Protocol: Using cleavage of PARP as an indicator of apoptosis, the compositions of the present invention were tested in PA-1 ovary cells. PARP is a 116 kD nuclear poly (ADP-ribose)polymerase that appears to be involved in DNA-repair, predominantly in response to environmental stress (Satoh, M. S. and T. Lindahl. 1992. Nature 356:356-358). PARP is important for cells to maintain their viability. Cleavage of PARP facilitates cellular disassembly and serves as a marker of cells undergoing apoptosis (Oliver, F. J. et al. 1998. J. Biol. Chem. 273:33533-33539). This protein can be cleaved by many ICE caspases to form a 85 kD protein in cells undergoing apoptosis. PA-1 cells were treated with OODABL for 24 hours. Cells were lysed and PARP cleavage was measured by Western Blot using a monoclonal antibody to PARP (Pharmingen, Inc., San Diego, Calif.). OABL induced PARP cleavage at doses of 10 and 20 μM, while OODABL induced PARP cleavage at a dose of 5 μM.

[6] = system: Bcl-2 (phosphorylation sites mutated); test: Bcl-2 phosphorylation by Western blot in mutated BRK-4B-Bcl-2 cells; format: cell-based; settings: mutated rat kidney cells, 12 hours
Protocol: (§6) The level of Bcl-2 phosphorylation was then assessed in the non-mutated and mutated BRK-4B-Bcl-2 cells using a Western blot assay. Cells were initially treated for 12 hours with the test compound, OODABL (at concentrations of 10, 20, 30, 40, or 60 μM). Taxol was used as a positive control at a concentration of 5 μM. Cells were then lysed in ice cold radio-immune precipitation buffer with inhibitors. Equivalent amounts of proteins were electrophoresed by 12% dodecyl sulfate-polyacrylamide gel electrophoresis and transferred to nitrocellulose. Bcl-2 and phosphorylated Bcl-2 proteins were detected using a monoclonal Bcl-2 primary antibody and a secondary goat anti-mouse horseradish peroxidase conjugated antibody followed by enhanced chemiluminescence detection.

Bcl-2 [7] = test: Bcl-2 phosphorylation by Western blot in non-mutated BRK-4B-Bcl-2 cells; format: cell-based, rat; settings: 12 hours
Protocol: as §6

[8] = system: NIH 3T3 (normal mouse fibroblasts) cells; test: MTT cell viability assay, NIH 3T3; format: cell-based
Protocol: as §1

BRK-4B-Bcl-2 cells = test: Clonogenic assay, BRK-4B-Bcl-2; format: cell-based, rat; settings: 15 days, read-out: IC50 clonogenic assay (colonies counted)
Protocol: as §5

MCF-7 cells = test: MTT cell viability assay, MCF-7; format: cell-based
Protocol: as §1, §2

[9] = system: microtubules (tubulin) in MCF-7 cells; test: Microtubule indirect immunofluorescence in MCF-7 cells; format: cell-based; settings: 12 hours
Protocol: The effect of OODABL on microtubules was examined by indirect immunofluorescence of MCF-7 cells using an antibody to tubulin after 12 hours treatment with either a vehicle control, 10 μM paclitaxel (positive control), or 20 μM OODABL.

HL-60 cells = test: TUNEL assay (APO-BRDU flow cytometry), late apoptosis; format: cell-based; settings: 12 hours
Protocol: In a TUNEL assay, the effect of OODABL on late apoptosis was examined. HL-60 cells lines were subjected to flow cytometry analysis using APO-BRDU. Apoptosis was detected by incorporation of Br-dUTP using a fluorescein labeled anti-BrdU monoclonal antibody after treatment with a vehicle control, 1 μM camptothecin or 20 μM OODABL for 12 hours.

PA-1 cells = test: MTT cell viability assay, PA-1; format: cell-based
Protocol: as §1, §2

[10] = system: phosphomutant BRK-4B-Bcl-2 cells; test: Clonogenic assay, phosphomutant BRK-4B-Bcl-2; format: cell-based, rat; settings: 15 days, read-out: IC50 clonogenic assay (colonies counted)
Protocol: as §5

RKO cells = test: Clonogenic assay, RKO; format: cell-based; settings: 15 days, read-out: IC50 clonogenic assay (colonies counted)
Protocol: as §5

C=C1C(=O)OC2CC(C)=C(C(C)CCCOC(C)=O)C(OC(C)=O)C12 (stereo not drawn) [OODABL, 1,6-O,O-diacetylbritannilactone]
IC50 (DU-145 cells; DU-145 cells): < 15.6 µM
effective dose inducing Bcl-2 phosphorylation (Bcl-2 [1]): 2.5 µM and 5 µM
dose inducing Bcl-2 phosphorylation (Bcl-2 [2]): 5 µM
effect on cell cycle [3]: arrested cells at the G2/M phase
dose inducing Bcl-2 phosphorylation (Bcl-2 [4]): 5 µM
dose inducing Bcl-2 phosphorylation (Bcl-2 [5]): 5 µM
IC50 (PC-3 prostate cells): ~0.2 µM
dose inducing PARP cleavage (PARP): 5 µM
level of Bcl-2 phosphorylation ([6]; 10-60 μM): no phosphorylation evident
level of Bcl-2 phosphorylation (Bcl-2 [7]; non-mutated cells, 10, 20, 30, 40, or 60 μM): dose-dependent increase in Bcl-2 phosphorylation
IC50 [8]: 50 µM
IC50 (BRK-4B-Bcl-2 cells): ~0.2 µM
IC50 (MCF-7 cells): < 12.5 µM
effect on microtubules ([9]; 20 μM): polymerized microtubules
late apoptosis (Br-dUTP incorporation) (HL-60 cells; 20 μM): induce apoptosis
IC50 (PA-1 cells): < 7.82 µM
IC50 [10]: ~2 µM
IC50 (RKO cells): ~20 µM

CC[C@@]1(O)C(=O)OCc2c1cc1n(c2=O)Cc2cc3ccccc3nc2-1 [camptothecin, reference compound]
late apoptosis (Br-dUTP incorporation) (HL-60 cells; 1 μM, positive control): induce apoptosis

C=C1C(=O)OC2CC(C)=C(C(C)CCCOC(C)=O)C(O)C12 (stereo not drawn) [OABL, 1-O-acetylbritannilactone]
cell viability (MTT), result in words (DU-145 cells; Du-145 cells, 4.68-100 μM): decreased cell viability
effective dose inducing Bcl-2 phosphorylation (Bcl-2 [1]): 10 µM and 20 µM
dose inducing Bcl-2 phosphorylation (Bcl-2 [2]): 10 µM
dose inducing Bcl-2 phosphorylation (Bcl-2 [4]): 10 µM
dose inducing Bcl-2 phosphorylation (Bcl-2 [5]): 10 µM
dose inducing PARP cleavage (PARP): 10 µM and 20 µM
IC50 (PA-1 cells): ~2 µM

CC(=O)O[C@H]1C(=O)[C@@]2(C)[C@H]([C@H](OC(=O)c3ccccc3)[C@]3(O)C[C@H](OC(=O)[C@H](O)[C@@H](NC(=O)c4ccccc4)c4ccccc4)C(C)=C1C3(C)C)[C@]1(OC(C)=O)CO[C@@H]1C[C@@H]2O [paclitaxel, reference compound]
effective dose inducing Bcl-2 phosphorylation (Bcl-2 [1]): 100 µM
level of Bcl-2 phosphorylation ([6]; 5 μM): no phosphorylation evident
level of Bcl-2 phosphorylation (Bcl-2 [7]; non-mutated cells, 5 μM, positive control): increased in protein phosphorylation
effect on microtubules ([9]; 10 μM, positive control): polymerized microtubules
